In the supplement of paper PMC10627819:

Tests used:
S. pneumoniae D39V [1] = assay: Bliss interaction score (quartile over a dose matrix) (fitness difference); higher = more antagonism (negative = synergy)
Method in brief: (§1)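 Fitness was derived from optical density at entry into stationary phase, divided by the robust mean of the no-drug wells on the same plate. That reading was taken as OD595, and the ratio was capped at 1. Single-drug fitness was inferred from the combination data. The Bliss score, observed fitness minus the expected product of single-drug fitness, was summarised as quartiles over technical, biological and donor/recipient replicates.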

B. subtilis 168 [2] = assay: as above
Method in brief: as §1

S. aureus DSM 20231 = assay: as above
Method in brief: as §1

S. aureus Newman = assay: as above
Method in brief: as §1

S. pneumoniae D39V [3] = assay: fitness (endpoint OD595 vs no drug) (fraction); higher = more growth
Method in brief: (§2)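 Fitness expresses the optical density reached at the stationary-phase transition as a fraction of the robust mean of no-drug control wells. It is capped at 1. Measurements were OD595 every 30 min for 14 h at 37 °C after inoculation of 384-well plates at OD595 0.01 (30 µl, or 55 µl for S. pneumoniae), minus the first reading.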

B. subtilis 168 [4] = assay: as above
Method in brief: as §2
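Wherever Bliss interaction score (quartile over a dose matrix) is given: first quartile when negative (synergy) and third quartile when positive (antagonism).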

CC(=O)NC[C@H]1CN(c2ccc(N3CCOCC3)c(F)c2)C(=O)O1 [Linezolid] + O=C1CN(/N=C/c2ccc([N+](=O)[O-])o2)C(=O)N1 [Nitrofurantoin]
Conditions	Bliss interaction score
B. subtilis 168 [2]	-0.141
S. aureus DSM 20231	-0.0317
S. aureus Newman	-0.0829
S. pneumoniae D39V [1]	-0.147

fitness, S. pneumoniae D39V [3]
Conditions	first compound 0.105 µg/mL	first compound 0.2 µg/mL	first compound 0.21 µg/mL	first compound 0.4 µg/mL	first compound 0.42 µg/mL	first compound 0.8 µg/mL
partner 1.285 µg/mL	–	0.79	–	0.695	–	0.291
partner 2 µg/mL	0.784	–	0.688	–	0.522	–
partner 2.57 µg/mL	–	0.791	–	0.683	–	0.259
partner 4 µg/mL	0.795	–	0.705	–	0.488	–
partner 8 µg/mL	0.618	–	0.346	–	0.151	–

S. pneumoniae D39V [3], partner 5.14 µg/mL, one replicate
Conditions	fitness
first compound 0.2 µg/mL	0.735
first compound 0.4 µg/mL	0.534
first compound 0.8 µg/mL	0.239

CO[C@@H]1[C@@H](OC(N)=O)[C@@H](O)[C@H](Oc2ccc3c(O)c(NC(=O)c4ccc(O)c(CC=C(C)C)c4)c(=O)oc3c2C)OC1(C)C [Novobiocin] + COc1ccc(C[C@H](N)C(=O)N[C@H]2[C@@H](O)[C@H](n3cnc4c(N(C)C)ncnc43)O[C@@H]2CO)cc1 [Puromycin]
Conditions	Bliss interaction score
B. subtilis 168 [2]	0.0583
S. aureus DSM 20231	-0.0356
S. aureus Newman	-0.0461
S. pneumoniae D39V [1]	0.105

fitness, B. subtilis 168 [4]
Conditions	first compound 0.0125 µg/mL	first compound 0.025 µg/mL	first compound 0.05 µg/mL
partner 0.39 µg/mL	0.948	0.948	0.973
partner 0.78 µg/mL	0.954	0.964	0.938
partner 1.56 µg/mL	0.956	0.907	0.971

fitness, B. subtilis 168 [4], one replicate
Conditions	first compound 0.125 µg/mL	first compound 0.25 µg/mL	first compound 0.5 µg/mL
partner 0.39 µg/mL	0.89	0.819	0.554
partner 0.78 µg/mL	0.962	0.953	0.655
partner 1.56 µg/mL	0.905	0.853	0.544

CC[C@H](C)[C@H](N)C1=N[C@H](C(=O)N[C@@H](CC(C)C)C(=O)N[C@H](CCC(=O)O)C(=O)N[C@H](C(=O)N[C@H]2CCCCNC(=O)[C@H](CC(N)=O)NC(=O)[C@@H](CC(=O)O)NC(=O)[C@H](Cc3cnc[nH]3)NC(=O)[C@@H](Cc3ccccc3)NC(=O)[C@H]([C@@H](C)CC)NC(=O)[C@@H](CCCN)NC2=O)[C@@H](C)CC)CS1 [Bacitracin] + CCC(C)C1C(=O)NC(=C)C(=O)NC(C(=O)NC(CSCC(C(=O)N1)NC(=O)/C(=C/C)/NC(=O)C(C(C)CC)N)C(=O)NC2C(SCC(NC(=O)CNC(=O)C3CCCN3C2=O)C(=O)NC(CCCCN)C(=O)NC4C(SCC(NC(=O)CNC(=O)C(NC(=O)C(NC(=O)C(NC(=O)CNC4=O)C)CC(C)C)CCSC)C(=O)NC(CC(=O)N)C(=O)NC(CCSC)C(=O)NC(CCCCN)C(=O)NC5C(SCC6C(=O)NC(C(=O)NC(CSC(C(C(=O)N6)NC(=O)C(NC5=O)C)C)C(=O)NC(CO)C(=O)NC(C(C)CC)C(=O)NC(CC7=CN=CN7)C(=O)NC(C(C)C)C(=O)NC(=C)C(=O)NC(CCCCN)C(=O)O)CC8=CN=CN8)C)C)C)CC(C)C [Nisin]
main component drawn
Conditions	Bliss interaction score
B. subtilis 168 [2]	-0.191
S. aureus DSM 20231	-0.0406
S. aureus Newman	0.112
S. pneumoniae D39V [1]	-0.0689

fitness, B. subtilis 168 [4], main component drawn
Conditions	first compound 37.5 µg/mL	first compound 75 µg/mL	first compound 150 µg/mL
partner 0.5 µg/mL	0.78	0.711	0.516
partner 1 µg/mL	0.754	0.575	0.269
partner 2 µg/mL	0.473	0.165	0.0302

fitness, B. subtilis 168 [4], one replicate, main component drawn
Conditions	partner 1.25 µg/mL	partner 1.6 µg/mL	partner 2.5 µg/mL	partner 3.2 µg/mL	partner 4 µg/mL	partner 5 µg/mL	partner 6.4 µg/mL	partner 8 µg/mL	partner 16 µg/mL
first compound 37.5 µg/mL	0.807	0.409	0.293	0.0184	0.0266	0.0118	0.0283	0.0124	0.0057
first compound 75 µg/mL	0.809	0.178	0.0249	0.0153	0.116	0.0085	0.0276	0.0348	0.0088
first compound 150 µg/mL	0.611	0.0142	0.0156	0.0131	0.0334	0.0106	0.0205	0.0221	0.0151

CO[C@@H]1[C@@H](OC(N)=O)[C@@H](O)[C@H](Oc2ccc3c(O)c(NC(=O)c4ccc(O)c(CC=C(C)C)c4)c(=O)oc3c2C)OC1(C)C [Novobiocin] + C[n+]1ccc(-c2cc[n+](C)cc2)cc1 [Paraquat]
Conditions	Bliss interaction score
B. subtilis 168 [2]	0.0704
S. aureus DSM 20231	0.0456
S. aureus Newman	0.0868
S. pneumoniae D39V [1]	0.0614

fitness, B. subtilis 168 [4]
Conditions	first compound 0.0125 µg/mL	first compound 0.025 µg/mL	first compound 0.05 µg/mL
partner 1.25 µg/mL	0.937	0.942	0.976
partner 2.5 µg/mL	0.939	0.956	0.999
partner 5 µg/mL	0.855	0.832	0.912

fitness, B. subtilis 168 [4], one replicate
Conditions	first compound 0.125 µg/mL	first compound 0.25 µg/mL	first compound 0.5 µg/mL
partner 1.25 µg/mL	0.908	≥ 1	0.664
partner 2.5 µg/mL	0.951	0.878	0.517
partner 5 µg/mL	0.836	0.819	0.452

CO[C@@H]1[C@@H](OC(N)=O)[C@@H](O)[C@H](Oc2ccc3c(O)c(NC(=O)c4ccc(O)c(CC=C(C)C)c4)c(=O)oc3c2C)OC1(C)C [Novobiocin] + CN[C@@H]1[C@H](O)[C@H](NC)[C@H]2O[C@@]3(O)C(=O)C[C@@H](C)O[C@H]3O[C@@H]2[C@H]1O [Spectinomycin]
Conditions	Bliss interaction score
B. subtilis 168 [2]	0.075
S. aureus DSM 20231	0.0538
S. aureus Newman	0.0698
S. pneumoniae D39V [1]	-0.0939

fitness, B. subtilis 168 [4]
Conditions	first compound 0.0125 µg/mL	first compound 0.025 µg/mL	first compound 0.05 µg/mL
partner 2 µg/mL	0.949	0.929	0.971
partner 4 µg/mL	0.967	0.948	≥ 1
partner 8 µg/mL	0.949	0.924	0.944

fitness, B. subtilis 168 [4], one replicate
Conditions	first compound 0.125 µg/mL	first compound 0.25 µg/mL	first compound 0.5 µg/mL
partner 2 µg/mL	0.898	0.779	0.526
partner 4 µg/mL	0.945	0.867	0.649
partner 8 µg/mL	0.963	0.957	0.577

CC(=O)NC[C@H]1CN(c2ccc(N3CCOCC3)c(F)c2)C(=O)O1 [Linezolid] + CO[C@@H]1[C@@H](OC(N)=O)[C@@H](O)[C@H](Oc2ccc3c(O)c(NC(=O)c4ccc(O)c(CC=C(C)C)c4)c(=O)oc3c2C)OC1(C)C [Novobiocin]
Conditions	Bliss interaction score
B. subtilis 168 [2]	0.046
S. aureus DSM 20231	0.0424
S. aureus Newman	0.0413
S. pneumoniae D39V [1]	-0.123

fitness, B. subtilis 168 [4], one replicate
Conditions	partner 0.05 µg/mL	partner 0.1 µg/mL	partner 0.125 µg/mL	partner 0.2 µg/mL	partner 0.25 µg/mL	partner 0.5 µg/mL
first compound 0.0625 µg/mL	0.871	0.925	–	0.885	–	–
first compound 0.125 µg/mL	–	0.595	0.846	0.554	0.727	0.578
first compound 0.25 µg/mL	–	0.0625	0.349	0.0582	0.218	0.242
first compound 0.5 µg/mL	–	–	0.069	–	0.0496	0.0575

fitness, B. subtilis 168 [4]
Conditions	first compound 0.125 µg/mL	first compound 0.25 µg/mL	first compound 0.5 µg/mL
partner 0.0125 µg/mL	0.659	0.23	0.0324
partner 0.025 µg/mL	0.574	0.182	0.0304
partner 0.05 µg/mL	0.597	0.0885	0.0285
